# Like-named read-outs stand apart in the source and are kept apart here.
# Legend:
# [1] = test system: endotoxin-induced lung disorders; conditions: The Course of Medical Science, 1992, 160, No. 4, pp. 257-258; cited from earlier work
# [2] = test system: pancreatic elastase induced acute lung injury in mice; experiment: Inhibitory effect on pancreatic elastase induced acute lung injury in mice; format: in vivo, ICR mice; conditions: oral 10 mg/Kg at 3.5 hr before and 4.5~5.0 hr after P. elastase (5 μg/site); BAL fluid at 20 hrs
# Experimental: ICR mice (25~30 g, .male., n=7~8) were used.
# The compound to be evaluated was suspended in 0.5% sodium carboxymethylcellulose-saline.
# Oral administration of the test compound was given at 10 mg/Kg at 3. 5 hr before an intratacheal instillation of P. elastase (5 μg/site). After sodium pentobarbital anesthetized, sterile saline containing P. elastase was instilled intratracheally via ventral neck in the throat incisions using a 250 μl syringe attached to a 27-gauge needle.
# The throat incisions were closed with surgical suture, and test compounds were administered with the same manner as described above at 4.5~5.0hr after an intratracheal instillation of P. elastase.
# At 20 hrs after an intratracheal instillation of P. elastase, animalz were euthanized by an i.p. pentobarbital overdose, each animal trachea was reexposed and the ventral nech region was small incised. A 10 cm length of small-diameter (O.D=0.5 mm) polyethylene catheter inserted and held in place using surgical suture. The lung were then lavaged with 500 μl sterile saline using a 1 ml syringe by gently expanding the lung and then withdrawing the saline.
# The same operation was repeated 6 times, yielding in a final volume of 3 ml bronchoalveolar lavage (BAL) fluid from each animal.
# The test compounds were evaluated as a inhabitory percent of hemorrhage and leukocyte number in the BAL fluid from each animal.
# Operation for hemorrhage and leukocyte number assay;
# Red blood cells were bursted with adding 50 μl KCN solution (0.33%) per 1 ml BAL fluid. The amount of blood in each BAL fluid sample was calculated from a hemoglobin standard curve.
# (§1) BAL fluid was diluted to 100 fold with a balanced electrolyte solution and KCN solution (0.33%) was added to the diluted BAL fluid for lysis of contaminating red blood cells.
# Leukocyte number was determined by the average of the three times count using a particle counter.
# Inhibitory effects of the test compounds on hemorrhage and leukocyte infiltration were calculated from the following equation: Inhibitory percent=[1-(The average value of test compound
# group)/(The average value of the control group)]×100
# The control animals were dosed orally with the same amount of vehicle before and after intratracheal instillation of P. elastase, and it were treated with the same manner as the test compound group.
# [3] = test system: endotoxin induced acute lung injury in mice; experiment: Inhibitory effect on endotoxin induced acute lung injury in mice; format: in vivo, ICR mice; conditions: Mus musculus, oral 10 mg/Kg at 1.5 hr before and 4.5~5.0 hr after LPS (25 μg/site), BAL fluid at 19~20 hrs
# Experimental: ICR mice (25~30 g, .male., n=7) were used.
# The test compounds were suspended at 0.1% in 0.5% sodium carboxymethylcellulose-saline.
# Oral administration of the test compounds were given at 10 mg/Kg at 1.5 hr before an intratracheal instillation of LPS (E.coli, 055:B5, Difico, 25 μg/site). After sodium pentobarbital anesthetized, LPS dissolved in sterile saline was instilled intratracheally via a ventral neck in the throat incisionusing with a 250 μl syringe attached to a 27-gauge needle.
# The throat incisions were sutured with surgical threads, and PI-compound was administered with the same mannner as described above 4.5~5.0 hr after LPS instillation.
# Up 19~20 hrs after LPS instillation, animals were euthanized by an i.p. pentobarbital overdose, each animal trachea was reexposed and the ventral neck region was small incised.
# A 10 cm length of small-diameter (O.D=0.5 mm) polyethylene catheter inserted and held in place using surgical suture. The lung was then lavaged with a single 500 μl sterile saline using a 1 ml syringe by gently expanding the lung and then withdrawing the saline. The same operation was repeated 6 times, yielding a final volume of 3 ml bronchoalveolar lavage (BAL) fluid from each animal.
# Evaluation of testing compounds were expressed as inhibitory percent of hemorrhage and leukocyte infiltration in the lung of each animals.
# Estimation for hemorrhage:
# Red blood cells were bursted with adding 50 μl KCN solution (0.33 %) per 1 ml of BAL fluid, and then the amount of blood in each BAL fluid samples were calculated from a hemoglobin standard curve.
# Estimation of leukocyte infiltrations:
# as §1
# Leukocyte number was determined from the average of the three times count using a particle counter.
# The inhibitory effect of testing compounds were calculated from thefollowing equation:
# Inhibitory percent=[1-(The average value of the test compound group)/(The
# average value of the control group)]×100
# The control animals were dosed orally with the same amount of the vehicle before and after intratracheal instillation of LPS and were operated with the same manner as the animals tested with the test compounds.
# [4] = molecular target: T1, human sputum elastase (Homo sapiens, UniProt P08246); experiment: Inhibitory effect on elastase (human sputum), spectrophotometric assay with MeOSuc-Ala-Ala-Pro-Val-pNA; format: biochemical
# T1 sequence (P08246 30-247 limits assumed): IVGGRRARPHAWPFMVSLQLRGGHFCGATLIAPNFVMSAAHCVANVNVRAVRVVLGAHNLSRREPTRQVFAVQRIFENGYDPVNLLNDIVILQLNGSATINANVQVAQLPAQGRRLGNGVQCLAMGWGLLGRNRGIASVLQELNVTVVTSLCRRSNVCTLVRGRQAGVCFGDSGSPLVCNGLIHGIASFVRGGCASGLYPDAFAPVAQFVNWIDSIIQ
# Experimental: (§2) Namely, it is a spectrophotometric assay using the synthesized substrate, methoxysuccinyl-alanyl-alanyl- prolyl-valyl-p-nitroanilide(MeOSuc-Ala-Ala-Pro-Val-pNA, Cambridge research biochemical Co.) which has high specificity on neutrophil elastase.
# (§3) 20 μl of a test compound of various concentrations and 20 μl of enzyme solution (13 unit/ml) were added to 400 μl of 0.1M sodium phosphate buffer (pH 8.0). The mixture was incubated at 37° C. for 5 min, and then 20 μl of the substrate was added to the mixture in a final volume of 460 μl. The reaction was conducted by incubating thus obtained mixture at 37° C. for 20 min. The reaction was stopped by the addition of 300 μl of 20% acetic acid into the reaction mixture, and then p-nitroanilide released was measured by the spectrophotometrically at 405 nm.
# (§4) Inhibition percents of the test compounds were calculated by the following equation:
# (§5) Inhibition %=[1-(OD 405 nm value of the testing sample-background)/(OD 405 nm value of the control-background)]×100
# [5] = Cytotoxicity test (MTT, three days); format: cell-based; conditions: mouse, l1210 cells, read-out: Survival rate; for viability at 72 h, 1 µM: final concentration 1 μM; for viability at 72 h, 5 µM: final concentration 5 μM; for viability at 72 h, 10 µM: final concentration 10 μM
# Experimental: L1210 (lymphocytic leukemia, mouse) cells in a logarithmic growth phase were collected and washed twice with HBSS (Hanks' balanced salt solution). The L1210 cells were resuspended at 5.0×10^4 cells/ml in RPMI 1640 medium containing 10% heat-inactivated fetal bovine serum. The cell suspension was dispensed in 100 μl aliquots into 96 well multi-plate. Each of compounds to be tested was dissolved in dimethylsulfoxide at a concentration of 10 mM. The solutions were stepwise diluted with RPMI 1640 solution containing 10% heat-inactivated fetal bovine serum. Each of the diluted samples was dispensed in an amount of 10 μl well in the 96 well multi-plate containing L1210 cells and incubated for three days at 37° C. in humidified 5% CO2 -air mixture. To each of the wells, 10 μl of MTT (3-(4,5-dimethylthiazol-2-yl)-2,5-diphenyltetrazolium bromide)(5 mg/ml in phosphate buffer free of Ca^2+ and Mg^2+) was added. Cultivation was continued for additional five hours at 37° C. in humidified 5% CO2 -air mixture. To each of the wells, 100 μl of 20% SDS (sodium dodecyl sulfate) in 0.01N HCl was added to solubilize the MTT formazan.
# Absorbance was measured at 630 nm as a reference wavelength and 570 nm as a measuring wavelength using Corona Electric MTP22 Microplate Photometer. The measurement was conducted three times for each of the samples to obtain an average value and a standard deviation. Survival rate was calculated by the following equation:
# Survival rate (5)=[(absorbance of test sample)/(absobance of […]
# [6] = molecular target: T2, human neutrophil elastase (Homo sapiens, UniProt P08246); experiment: Inhibitory effect on elastase (human neutrophil), spectrophotometric assay with MeOSuc-Ala-Ala-Pro-Val-pNA; format: biochemical; conditions: N: human neutrophil elastase; pH 8.0, 37° C.; read-out: IC50
# T2 construct: using elastase from human neutrophil or human sputum; from tissue; host or cells: human neutrophil
# T2 sequence (P08246 30-247 limits assumed): T1 sequence (P08246 30-247 limits assumed)
# Experimental: as §2, §3, §4, §5
# [7] = Leukocyte, read-out: Inhibitory percent of leukocyte infiltration
# [8] = read-out: Inhibitory percent of hemorrhage
# [9] = S: human sputum elastase, pH 8.0, 37° C., read-out: IC50
SMILES,"IC50 [4, 9] [nM]",IC50 [6] [nM],effect of inhibiting endotoxin-induced lung disorders (in words) [1],Inhibitory percent of hemorrhage [2] [%],Inhibitory percent of leukocyte infiltration [2] [%],"inhibition in vivo at 10 mg/kg [3, 7] [%]","inhibition in vivo at 10 mg/kg [3, 8] [%]","viability at 72 h, 1 µM [5] [%]","viability at 72 h, 5 µM [5] [%]","viability at 72 h, 10 µM [5] [%]",IC50 [4] [nM]
CC(C)(C)C(=O)Oc1ccc(S(=O)(=O)Nc2ccccc2C(=O)NCC(=O)O)cc1 [ONO-5046],,,shows an effect of inhibiting endotoxin-induced lung disorders,,,,,,,,
"CN(C)c1ccc(Cn2nnc(-c3ccc(OC(=O)C(C)(C)C)c(N(C)C)c3)n2)cc1 [Example 7, 2-Dimethylamino-4-[2-[4-(dimethylamino)benzyl]tetrazol-5-yl]phenyl pivalate]",540,,,23.6,26.1,82.1,88.5,97,96.1,88.3,
"CC(=O)O.CC(C)(C)C(=O)Oc1ccc(-c2nnn(CCNC(=O)c3ccc(NC(=N)N)cc3)n2)cc1 [Example 95, 4-[2-[2-(4-Guanidinobenzoylamino)ethyl]tetrazol-5-yl]phenyl pivalate Acetate]",,,,15.2,30.2,79.6,62.3,103,109,107,250

# Continued, in another order:
"IC50 [4, 9] [nM]",IC50 [6] [nM],SMILES,effect of inhibiting endotoxin-induced lung disorders (in words) [1],Inhibitory percent of hemorrhage [2] [%],Inhibitory percent of leukocyte infiltration [2] [%],"inhibition in vivo at 10 mg/kg [3, 7] [%]","inhibition in vivo at 10 mg/kg [3, 8] [%]","viability at 72 h, 1 µM [5] [%]","viability at 72 h, 5 µM [5] [%]","viability at 72 h, 10 µM [5] [%]",IC50 [4] [nM]
14,,"CC(C)(C)C(=O)Oc1ccc(-c2nnn(Cc3ccncc3)n2)cc1 [Example 35, 4-[2-(4-Pyridylmethyl)tetrazol-5-yl]phenyl pivalate]",,71.5,45.1,,,95.2,110,99.1,
510,42,"CC(C)c1ccc(Cn2nnc(-c3ccc(OC(=O)C(C)(C)C)cc3)n2)cc1 [Example 19, 4-[2-(4-Isopropylbenzyl)tetrazol-5-yl]phenyl pivalate]",,76.8,14.1,65.6,33.8,,,,
150,30,"CN(C)c1ccc(Cn2nnc(-c3ccc(OC(=O)C(C)(C)C)cc3)n2)cc1 [Example 16, 4-[2-[4-(Dimethylamino)benzyl]tetrazol-5-yl]phenyl pivalate]",,44.0,49.0,88.2,84.9,94.2,103,104,

# — US5602161A, “Tetrazolylphenyl pivalate derivatives and medicinal composition containing the same as effective component” (Wakamoto Pharmaceutical Co., Ltd., priority 1994, dated 1997)
